The values that follow are results of earlier work, collected in patent publication US20210065841A1, “METHOD FOR DETERMINING ANDROGEN AND ANTI-ANDROGEN EFFECTS ON SUBSTANCES” (priority 2018, published 2021).

The data set deals with T1, androgen receptor (Homo sapiens, UniProt P10275).
T1 sequence (P10275 1-920): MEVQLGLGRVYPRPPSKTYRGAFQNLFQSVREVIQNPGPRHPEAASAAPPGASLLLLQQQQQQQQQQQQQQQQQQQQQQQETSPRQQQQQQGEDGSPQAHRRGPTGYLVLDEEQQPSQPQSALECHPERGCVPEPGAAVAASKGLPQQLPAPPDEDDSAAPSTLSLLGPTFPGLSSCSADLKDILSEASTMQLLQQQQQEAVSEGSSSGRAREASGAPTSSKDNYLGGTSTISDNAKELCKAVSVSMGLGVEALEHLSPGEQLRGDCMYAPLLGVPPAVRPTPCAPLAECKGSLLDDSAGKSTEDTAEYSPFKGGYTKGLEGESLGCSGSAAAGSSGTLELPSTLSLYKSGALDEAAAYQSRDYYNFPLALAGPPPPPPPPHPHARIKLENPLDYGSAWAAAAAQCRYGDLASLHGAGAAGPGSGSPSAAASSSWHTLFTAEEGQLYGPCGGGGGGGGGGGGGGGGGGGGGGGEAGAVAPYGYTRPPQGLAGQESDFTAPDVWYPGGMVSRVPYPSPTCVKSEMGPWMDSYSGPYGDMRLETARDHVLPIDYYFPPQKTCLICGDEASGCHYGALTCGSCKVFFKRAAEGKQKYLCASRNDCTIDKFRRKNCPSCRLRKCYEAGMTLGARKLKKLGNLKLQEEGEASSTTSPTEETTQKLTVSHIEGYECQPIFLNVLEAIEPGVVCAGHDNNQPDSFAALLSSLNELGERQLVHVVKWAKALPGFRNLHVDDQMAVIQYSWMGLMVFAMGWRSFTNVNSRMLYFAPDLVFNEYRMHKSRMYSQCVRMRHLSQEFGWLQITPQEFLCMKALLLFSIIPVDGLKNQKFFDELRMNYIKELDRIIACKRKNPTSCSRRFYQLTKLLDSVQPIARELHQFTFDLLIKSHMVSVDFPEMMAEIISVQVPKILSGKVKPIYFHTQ
To be noted: previous reports.

Take `CCCCC(CC)COC(=O)c1cc(Br)c(Br)c(Br)c1Br` (centres unmarked) [TBB]: the “androgen receptor antagonistic properties” value was “androgen receptor antagonistic properites”.

In the case of `BrC1CCC(Br)C(Br)CCC1Br` (centres unmarked) [TBCO], the “androgen receptor antagonistic properties” value is reported as “androgen receptor antagonistic properites”.
